Data published in patent US11787847B2, “Method of identifying malodor modulating compounds” (FIRMENICH SA, priority 2017, dated 2023).

How the values were obtained:
Assay in all cases: cell-based dose-response, Ca2+ increase (Calcium 5 dye, FLIPR), HEK293T line stably expressing FLAG-Rho tagged receptor with human Gα15
[1] = target: T1, human receptor OR4C15 (Homo sapiens, UniProt Q8NGM1); details: FIG. 3, Example 3, SEQ ID NO: 30, stable HEK293T
T1 construct: The receptors were tagged with a FLAG®-Rho tag combination; expressed in transfected cells
Protocol: (§1) Functional dose-response experiments were performed to evaluate the level of DMTS activity of the modified cell lines expressing individual putative DMTS receptors. A cell line stably expressing a human receptor was generated in a HEK293T cell line for each of the following human receptors: OR2L13, OR4C15, OR5AC2, OR8H3, OR11G2 or OR52N2. The receptors were tagged with a FLAG®-Rho tag combination and stably co-expressed with the human G-protein alpha subunit Gals for the cell based assay. Co-expression of the human Gals activates the Gq transduction pathway that leads to an internal Ca^2+ increase upon binding to the appropriate ligand. Receptors were exposed to increasing concentrations of DMTS. Odorant-induced activity was detected by measuring the Ca^2+ increase in the cytosol using a calcium sensitive fluorescent dye (Molecular Devices, Calcium 5 dye, cat. R8186) and measuring the change in Relative Fluorescence Ratio (RFU) using a fluorometric imaging plate reader (Molecular Devices, FLIPR) following odorant exposure. […] A cell line lacking a receptor was used as a control for non-specific activity at high compound concentrations (‘No receptor’). The activity levels are reported by the potency of the DMTS induced-response for each receptor as a measure of the EC50 value.

[2] = target: T2, human receptor OR52N2 (Homo sapiens, UniProt Q8NGI0); details: FIG. 3, Example 3, SEQ ID NO: 38, stable HEK293T
T2 construct: The receptors were tagged with a FLAG®-Rho tag combination; expressed in transfected cells
T2 sequence (Q8NGI0 1-321): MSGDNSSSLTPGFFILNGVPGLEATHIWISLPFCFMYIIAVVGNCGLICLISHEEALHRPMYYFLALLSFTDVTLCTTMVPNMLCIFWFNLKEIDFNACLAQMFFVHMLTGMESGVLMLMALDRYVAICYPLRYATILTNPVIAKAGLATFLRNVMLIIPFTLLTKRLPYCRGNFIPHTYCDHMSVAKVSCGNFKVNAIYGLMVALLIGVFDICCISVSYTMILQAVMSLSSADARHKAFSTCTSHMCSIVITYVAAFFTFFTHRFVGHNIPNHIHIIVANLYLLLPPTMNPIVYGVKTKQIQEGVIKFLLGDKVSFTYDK
Protocol: as §1

[3] = target: T3, human receptor OR5AC2 (Homo sapiens, UniProt Q9NZP5); details: FIG. 3, Example 3, SEQ ID NO: 32, stable HEK293T
T3 construct: The receptors were tagged with a FLAG®-Rho tag combination; expressed in transfected cells
T3 sequence (Q9NZP5 1-309): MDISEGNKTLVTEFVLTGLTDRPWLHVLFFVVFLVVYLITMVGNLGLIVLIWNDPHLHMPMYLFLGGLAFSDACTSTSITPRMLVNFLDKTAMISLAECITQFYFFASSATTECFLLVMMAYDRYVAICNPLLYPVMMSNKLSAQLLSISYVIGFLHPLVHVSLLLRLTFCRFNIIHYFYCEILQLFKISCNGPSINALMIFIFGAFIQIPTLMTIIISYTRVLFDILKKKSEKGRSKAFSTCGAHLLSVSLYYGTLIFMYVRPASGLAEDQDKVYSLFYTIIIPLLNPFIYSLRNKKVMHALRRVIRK
Protocol: as §1

[4] = target: T4, human receptor OR8H3 (Homo sapiens, UniProt Q8N146); details: FIG. 3, Example 3, SEQ ID NO: 34, stable HEK293T
T4 construct: The receptors were tagged with a FLAG®-Rho tag combination; expressed in transfected cells
T4 sequence (Q8N146 1-312): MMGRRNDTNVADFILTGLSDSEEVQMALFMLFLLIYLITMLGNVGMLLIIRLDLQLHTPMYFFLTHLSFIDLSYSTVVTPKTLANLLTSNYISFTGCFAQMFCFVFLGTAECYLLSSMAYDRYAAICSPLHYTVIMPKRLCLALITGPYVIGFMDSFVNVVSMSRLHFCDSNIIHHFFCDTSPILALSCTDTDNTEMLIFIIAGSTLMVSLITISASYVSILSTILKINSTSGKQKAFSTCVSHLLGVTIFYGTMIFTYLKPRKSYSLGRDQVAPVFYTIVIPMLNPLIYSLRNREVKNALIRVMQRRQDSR
Protocol: as §1

[5] = target: T5, human receptor OR11G2 (Homo sapiens, UniProt Q8NGC1); details: FIG. 3, Example 3, SEQ ID NO: 36, stable HEK293T
T5 construct: The receptors were tagged with a FLAG®-Rho tag combination; expressed in transfected cells
T5 sequence (Q8NGC1 35-345 limits assumed): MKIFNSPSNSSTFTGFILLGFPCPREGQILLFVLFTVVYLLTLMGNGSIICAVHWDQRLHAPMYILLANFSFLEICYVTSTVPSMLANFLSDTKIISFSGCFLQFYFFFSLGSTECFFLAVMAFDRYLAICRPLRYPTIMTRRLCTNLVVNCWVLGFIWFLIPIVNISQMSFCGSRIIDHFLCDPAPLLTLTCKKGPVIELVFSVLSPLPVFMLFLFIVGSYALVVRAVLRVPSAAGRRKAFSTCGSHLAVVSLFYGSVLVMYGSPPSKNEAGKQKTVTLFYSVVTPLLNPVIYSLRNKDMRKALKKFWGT
Protocol: as §1

T1 sequence (Q8NGM1 with tags, fused parts or gaps): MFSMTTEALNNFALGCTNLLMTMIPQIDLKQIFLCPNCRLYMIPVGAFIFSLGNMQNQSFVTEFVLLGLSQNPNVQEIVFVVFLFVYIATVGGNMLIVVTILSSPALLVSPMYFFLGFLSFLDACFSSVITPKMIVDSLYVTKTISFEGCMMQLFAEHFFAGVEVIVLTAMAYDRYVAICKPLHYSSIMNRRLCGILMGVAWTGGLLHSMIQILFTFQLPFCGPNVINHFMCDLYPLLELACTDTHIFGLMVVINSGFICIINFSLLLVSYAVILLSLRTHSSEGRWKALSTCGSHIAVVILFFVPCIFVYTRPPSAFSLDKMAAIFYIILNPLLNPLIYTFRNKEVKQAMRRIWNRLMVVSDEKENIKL

- EC50 [1]: 800 nM
- EC50 [2]: 5 µM
- EC50 [3]: 27 µM
- EC50 [4]: 62 µM
- EC50 [5]: 12 µM
SMILES: CSSSC [DMTS, dimethyl trisulfide]
